# Measured values reported in publication PMC9021288 (Nature Communications, 2022).
# “Also recorded” adds a separate entry of the source.
# How the values were obtained:
# [1] = Stability under stress storage conditions (XRPD); format: physicochemical; settings: 40 °C, 75% RH open and closed container or 60 °C, one month
# [2] = tested on: P. falciparum NF54 rings and schizonts; assay: Stage-specific activity on synchronized ring and schizont cultures; format: cell-based, Plasmodium falciparum
# Method: Asynchronous NF54 parasites were cultured in a semi-automated shaker system[63] and synchronized once with 5% D-sorbitol. […] This yielded a parasite culture with ≥ 90% rings. To assess the schizont-stage activity of MMV693186, the initial synchronized culture was treated again with sorbitol 7 h later. Subsequently, parasites were cultured for another 17 h to yield a parasite culture of ≥ 90% early schizont stages. The ring and schizont synchronized cultures were diluted to 0.5% and then incubated with either 50 nM DHA or 50 nM MM693183 for 24 h in duplicate. Subsequently, the drug was washed out and parasites were cultured for another 24 h. Parasitemia was determined using Giemsa-stained thin smears at 0 h, 24 h, and 48 h after drug exposure.
# [3] = tested on: P. falciparum NF54 male gametocytes; assay: Dual gamete formation assay, male; format: cell-based, Plasmodium falciparum
# Method: After a 48-h incubation, gamete formation was stimulated by a drop in temperature (from 37 °C to 26 °C), and the addition of xanthurenic acid (2.5 µM). At 20 min after induction, exflagellation was recorded by automated time-lapse microscopy. After data collection, the plate was returned to a 26 °C incubator and incubated for 24 h. Female gamete formation was assessed by live staining with a Cy3-labelled anti-Pfs25 monoclonal antibody (1:2222) and recorded by automated microscopy.
# [4] = Population PK model in NSG mice; format: in vivo, female NSG mice; settings: population PK model estimate
# Method: The experimental designs are summarized in Supplementary Table 30. […] Samples were processed under liquid-liquid extraction methods and analyzed by LC-MS/MS for quantitation in a Waters UPLC-TQD (Micromass, Manchester, UK).
# Data preparation, exploration and model pre- and postprocessing were performed using R (version 3.6.3) and R package IQRtools (version 1.2.1 IntiQuan GmbH). Non-linear mixed-effects (NLME) modeling was used to estimate the PK and PD parameters using Monolix (Lixoft version MLX2018R2). The population PKPD model was developed with a two-stage approach: first, a population PK model was determined; then, the individual PK parameters were used as regression parameters and the PD parameters were estimated. The PD model consists of the balance between a parasite net growth rate and a drug killing rate. […] The growth rate of log-transformed parasite concentration was fixed at 0.03 /h based on prior experiments but estimating growth rate interindividual variability. Different Hill coefficients were tested.
# hCaV 1.2 = target: T1, hCaV 1.2 (Homo sapiens, UniProt Q13936); assay: Manual patch clamp; format: cell-based; settings: for Minimum current: single cells and Mean, mean
# T1 construct: Metrion Biosciences
# Method: (§1) Safety studies were performed by commercial services using their standard protocols. […] Genotoxicity was investigated using the Ames test (Bacterial Reverse Mutation Assay) (Covance Laboratories Ltd, North Yorkshire, England). In vitro mammalian cell micronucleus screening assay was studied in human peripheral blood lymphocytes (BioReliance Corporation, Rockville, USA). Cardiotoxicity was determined against the hERG channel in an automated patch clamp assay using the Qpatch or against the hNaV 1.5, hKV 1.5 and hCaV 1.2 using a manual patch-clamp technique (Metrion Biosciences, Cambridge, UK). Cytotoxicity in human and rat primary hepatocytes was assessed using the CellTiter-Blue assay performed by commercial services (KaLy-Cell). The viability of HepG2 cells was monitored through the addition of 1 mM resazurin. Following 6 h incubation, the relative amount of reduced resazurin was detected in a fluorimeter and compared to the assay controls (vehicle: 0.1% DMSO and positive control: 10 µM puromycin).
# hKV 1.5 = target: T2, hKV 1.5 (Homo sapiens, UniProt P22460); assay: Manual patch clamp; format: cell-based; settings: for Charge / Peak current: single cells and Mean, mean
# T2 construct: Metrion Biosciences
# Method: as §1
# [5] = tested on: human peripheral blood lymphocytes; assay: In vitro micronucleus screening assay
# Method: as §1
# [6] = 4-hour treatment + S9, 13.6 ug/ml
# [7] = 4-hour treatment + S9, 19.4 ug/ml
# [8] = 4-hour treatment + S9, 27.7 ug/ml
# [9] = 4-hour treatment + S9, 39.5 ug/ml
# [10] = 4-hour treatment + S9, 56.5 ug/ml
# [11] = 4-hour treatment + S9, 80.7 ug/ml
# [12] = 4-hour treatment + S9, 115 ug/ml
# [13] = 4-hour treatment + S9, 165 ug/ml
# [14] = 4-hour treatment + S9, 235 ug/ml
# [15] = 4-hour treatment + S9, 336 ug/ml
# [16] = 4-hour treatment + S9, 480 ug/ml
# [17] = 4-hour treatment + S9, 686 ug/ml
# [18] = 4-hour treatment + S9, 980 ug/ml
# [19] = 4-hour treatment + S9, 1400 ug/ml
# [20] = 4-hour treatment + S9, 2000 ug/ml
# [21] = 4-hour treatment - S9, 13.6 ug/ml
# [22] = 4-hour treatment - S9, 19.4 ug/ml
# [23] = 4-hour treatment - S9, 27.7 ug/ml
# [24] = 4-hour treatment - S9, 39.5 ug/ml
# [25] = 4-hour treatment - S9, 56.5 ug/ml
# [26] = 4-hour treatment - S9, 80.7 ug/ml
# [27] = 4-hour treatment - S9, 115 ug/ml
# [28] = 4-hour treatment - S9, 165 ug/ml
# [29] = 4-hour treatment - S9, 235 ug/ml
# [30] = 4-hour treatment - S9, 336 ug/ml
# [31] = 4-hour treatment - S9, 480 ug/ml
# [32] = 4-hour treatment - S9, 686 ug/ml
# [33] = 4-hour treatment - S9, 980 ug/ml
# [34] = 4-hour treatment - S9, 1400 ug/ml
# [35] = 4-hour treatment - S9, 2000 ug/ml
# T1 sequence (Q13936 whole entry): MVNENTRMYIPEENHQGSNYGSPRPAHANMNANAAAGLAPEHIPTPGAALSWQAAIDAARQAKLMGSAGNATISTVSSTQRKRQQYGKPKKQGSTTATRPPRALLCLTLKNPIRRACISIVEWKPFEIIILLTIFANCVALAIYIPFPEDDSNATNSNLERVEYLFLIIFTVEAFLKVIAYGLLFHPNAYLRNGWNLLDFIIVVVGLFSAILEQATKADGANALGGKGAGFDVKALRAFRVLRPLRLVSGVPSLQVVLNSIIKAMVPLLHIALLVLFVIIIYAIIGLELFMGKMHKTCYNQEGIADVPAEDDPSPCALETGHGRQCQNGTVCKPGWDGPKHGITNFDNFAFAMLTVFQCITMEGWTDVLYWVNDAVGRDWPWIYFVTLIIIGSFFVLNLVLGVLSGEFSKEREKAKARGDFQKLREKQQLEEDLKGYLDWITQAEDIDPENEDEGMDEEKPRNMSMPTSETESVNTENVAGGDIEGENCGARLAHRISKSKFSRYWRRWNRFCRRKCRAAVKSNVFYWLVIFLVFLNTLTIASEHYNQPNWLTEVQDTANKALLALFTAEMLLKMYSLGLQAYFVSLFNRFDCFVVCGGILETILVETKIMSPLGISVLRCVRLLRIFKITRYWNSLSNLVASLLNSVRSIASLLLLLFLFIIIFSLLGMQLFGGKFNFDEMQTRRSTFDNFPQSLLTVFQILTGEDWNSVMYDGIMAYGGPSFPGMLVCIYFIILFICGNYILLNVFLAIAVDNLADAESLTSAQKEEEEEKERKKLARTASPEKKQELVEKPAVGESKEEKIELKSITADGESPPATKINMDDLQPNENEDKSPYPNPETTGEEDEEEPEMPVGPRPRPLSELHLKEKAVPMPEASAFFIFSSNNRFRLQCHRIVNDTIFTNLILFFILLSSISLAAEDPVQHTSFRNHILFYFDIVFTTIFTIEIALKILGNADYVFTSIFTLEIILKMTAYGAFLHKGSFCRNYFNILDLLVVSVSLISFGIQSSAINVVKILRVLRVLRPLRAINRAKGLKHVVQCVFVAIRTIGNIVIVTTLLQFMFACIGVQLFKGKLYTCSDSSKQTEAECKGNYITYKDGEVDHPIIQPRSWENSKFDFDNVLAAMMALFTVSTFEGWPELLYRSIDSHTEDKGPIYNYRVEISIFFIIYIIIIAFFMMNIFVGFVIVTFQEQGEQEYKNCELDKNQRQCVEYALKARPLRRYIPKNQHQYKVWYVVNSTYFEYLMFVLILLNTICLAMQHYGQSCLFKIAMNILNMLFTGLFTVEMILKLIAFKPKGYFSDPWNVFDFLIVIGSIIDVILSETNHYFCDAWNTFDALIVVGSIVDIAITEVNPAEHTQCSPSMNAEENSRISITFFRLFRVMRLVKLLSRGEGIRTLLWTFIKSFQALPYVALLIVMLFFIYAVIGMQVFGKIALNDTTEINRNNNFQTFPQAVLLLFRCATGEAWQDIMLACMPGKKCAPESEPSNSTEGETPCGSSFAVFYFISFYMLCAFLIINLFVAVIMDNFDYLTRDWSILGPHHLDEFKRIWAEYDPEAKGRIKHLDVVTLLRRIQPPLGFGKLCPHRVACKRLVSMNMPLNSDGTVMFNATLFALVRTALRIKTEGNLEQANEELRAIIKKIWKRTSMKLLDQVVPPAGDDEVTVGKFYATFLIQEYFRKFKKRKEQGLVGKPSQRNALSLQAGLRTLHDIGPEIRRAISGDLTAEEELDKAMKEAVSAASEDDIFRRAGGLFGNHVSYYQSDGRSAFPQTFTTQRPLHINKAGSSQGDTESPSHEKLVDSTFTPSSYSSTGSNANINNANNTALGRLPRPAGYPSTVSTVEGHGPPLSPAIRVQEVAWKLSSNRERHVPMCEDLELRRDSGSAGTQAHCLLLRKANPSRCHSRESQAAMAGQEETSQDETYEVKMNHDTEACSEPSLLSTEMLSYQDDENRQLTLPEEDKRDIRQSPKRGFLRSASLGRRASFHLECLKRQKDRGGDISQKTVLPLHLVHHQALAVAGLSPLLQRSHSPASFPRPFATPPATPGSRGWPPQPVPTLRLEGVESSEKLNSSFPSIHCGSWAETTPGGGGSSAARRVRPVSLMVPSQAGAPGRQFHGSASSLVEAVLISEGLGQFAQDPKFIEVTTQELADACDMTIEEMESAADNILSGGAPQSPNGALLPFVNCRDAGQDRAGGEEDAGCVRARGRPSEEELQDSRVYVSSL
# T1 sequence (Q08289 whole entry partner): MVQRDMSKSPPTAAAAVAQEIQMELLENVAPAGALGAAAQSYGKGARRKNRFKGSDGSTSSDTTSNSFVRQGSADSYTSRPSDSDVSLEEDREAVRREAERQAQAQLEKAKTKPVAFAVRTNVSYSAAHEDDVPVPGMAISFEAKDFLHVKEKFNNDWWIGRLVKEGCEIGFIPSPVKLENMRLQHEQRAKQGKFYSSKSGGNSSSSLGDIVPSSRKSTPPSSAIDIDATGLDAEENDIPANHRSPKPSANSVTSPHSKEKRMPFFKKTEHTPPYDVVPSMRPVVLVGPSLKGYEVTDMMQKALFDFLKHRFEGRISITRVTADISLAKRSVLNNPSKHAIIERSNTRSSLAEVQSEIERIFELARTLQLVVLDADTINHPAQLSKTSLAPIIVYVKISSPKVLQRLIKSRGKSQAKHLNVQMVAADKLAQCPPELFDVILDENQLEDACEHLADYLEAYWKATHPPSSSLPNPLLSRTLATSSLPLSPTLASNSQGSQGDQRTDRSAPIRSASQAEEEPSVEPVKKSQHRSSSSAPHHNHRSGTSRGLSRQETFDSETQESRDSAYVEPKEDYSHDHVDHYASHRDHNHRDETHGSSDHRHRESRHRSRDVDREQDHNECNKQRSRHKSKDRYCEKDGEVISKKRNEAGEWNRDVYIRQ
# T1 sequence (P54289 25-946 partner limits assumed): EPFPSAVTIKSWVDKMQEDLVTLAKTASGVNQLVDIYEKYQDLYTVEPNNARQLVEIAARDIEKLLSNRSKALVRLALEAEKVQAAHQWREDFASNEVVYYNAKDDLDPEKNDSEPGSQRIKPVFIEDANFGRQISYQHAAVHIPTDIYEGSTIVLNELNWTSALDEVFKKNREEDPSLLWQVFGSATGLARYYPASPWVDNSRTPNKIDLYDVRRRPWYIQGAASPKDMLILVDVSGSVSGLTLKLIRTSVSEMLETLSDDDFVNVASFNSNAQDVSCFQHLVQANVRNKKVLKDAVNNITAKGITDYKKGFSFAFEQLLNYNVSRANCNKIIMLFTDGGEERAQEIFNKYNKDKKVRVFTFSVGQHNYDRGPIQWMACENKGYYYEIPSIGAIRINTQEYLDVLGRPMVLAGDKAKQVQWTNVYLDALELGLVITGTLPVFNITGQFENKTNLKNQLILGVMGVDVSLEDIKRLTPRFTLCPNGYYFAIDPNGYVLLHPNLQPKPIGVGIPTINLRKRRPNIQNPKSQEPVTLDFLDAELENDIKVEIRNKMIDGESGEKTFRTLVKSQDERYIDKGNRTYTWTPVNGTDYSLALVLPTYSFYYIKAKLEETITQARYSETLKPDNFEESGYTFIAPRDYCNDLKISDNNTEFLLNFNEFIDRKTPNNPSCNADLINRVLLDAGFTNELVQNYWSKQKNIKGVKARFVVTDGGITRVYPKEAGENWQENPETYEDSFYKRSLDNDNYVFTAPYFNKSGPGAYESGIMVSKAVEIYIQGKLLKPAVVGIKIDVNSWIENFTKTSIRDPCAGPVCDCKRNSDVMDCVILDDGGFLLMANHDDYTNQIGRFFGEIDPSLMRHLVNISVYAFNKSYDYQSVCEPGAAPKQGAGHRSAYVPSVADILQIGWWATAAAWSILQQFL
# T1 sequence (P54289 947-1103 partner limits assumed): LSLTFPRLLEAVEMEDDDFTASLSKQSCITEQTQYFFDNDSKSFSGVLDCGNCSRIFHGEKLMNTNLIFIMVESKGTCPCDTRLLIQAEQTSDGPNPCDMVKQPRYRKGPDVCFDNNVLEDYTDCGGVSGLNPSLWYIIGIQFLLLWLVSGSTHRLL
# T2 sequence (P22460 whole entry): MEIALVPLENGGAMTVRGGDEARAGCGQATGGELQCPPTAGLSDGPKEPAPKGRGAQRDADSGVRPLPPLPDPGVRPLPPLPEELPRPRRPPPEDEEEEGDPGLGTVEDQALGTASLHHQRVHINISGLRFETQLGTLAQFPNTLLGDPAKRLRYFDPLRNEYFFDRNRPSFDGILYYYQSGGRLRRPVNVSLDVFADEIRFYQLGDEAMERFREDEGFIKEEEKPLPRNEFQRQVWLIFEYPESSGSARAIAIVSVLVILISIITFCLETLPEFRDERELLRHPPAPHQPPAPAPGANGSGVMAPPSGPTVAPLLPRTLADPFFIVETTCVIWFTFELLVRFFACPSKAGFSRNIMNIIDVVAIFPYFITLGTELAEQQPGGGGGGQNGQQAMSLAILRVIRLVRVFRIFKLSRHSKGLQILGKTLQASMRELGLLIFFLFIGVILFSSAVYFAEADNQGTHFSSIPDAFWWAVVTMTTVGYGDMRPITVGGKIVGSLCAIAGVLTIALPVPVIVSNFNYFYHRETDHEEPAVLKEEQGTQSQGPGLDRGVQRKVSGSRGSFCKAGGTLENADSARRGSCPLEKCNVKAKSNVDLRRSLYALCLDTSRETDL
smiles,measurement,setting,value
C[C@@H](CNC(=O)[C@H](O)C(C)(C)CO)NC(=O)c1cc(F)c(F)cc1F [MMV693183],stability after storage under stress conditions,[1],chemically stable; also recorded: no form-change
same,activity against asexual stages,"[2]; 50 nM, 24 h",active against both early and late asexual blood stages
same,"Parasitemia, rings culture",[2]; Time (h) 0,0.4
same,"Parasitemia, rings culture",[2]; Time (h) 24,0
same,"Parasitemia, schizonts culture",[2]; Time (h) 0,0.2
same,"Parasitemia, schizonts culture",[2]; Time (h) 24,0
same,IC50,[3],1 µM
same,"CL, apparent clearance",[4],1.25 L/h
same,"Tk0, absorption time",[4],0.364 h
same,"Vc, apparent central volume",[4],2.25 L
same,"Vp1, apparent peripheral volume",[4],799 L
same,"Vp2, apparent second peripheral volume",[4],1.81 L
same,Inhibition,hCaV 1.2; 10 µM,24.20%
same,Minimum current,"hCaV 1.2; Cav1.2, 0.3uM",4.49%
same,Minimum current,"hCaV 1.2; Cav1.2, 1uM",7.60%
same,Minimum current,"hCaV 1.2; Cav1.2, 10uM",24.20%
same,IC50,hCaV 1.2; hCaV 1.2,> 10 µM
same,Inhibition,hKV 1.5; 10 µM,2.15%
same,IC50,hKV 1.5; hKV 1.5,> 10 µM
same,Charge,"hKV 1.5; hKv1.5, 300nM",4.53%
same,Peak current,"hKV 1.5; hKv1.5, 300nM",0.19%
same,Peak current,"hKV 1.5; hKv1.5, 1uM",1.06%
same,Charge,"hKV 1.5; hKv1.5, 3uM",8.60%
same,Peak current,"hKV 1.5; hKv1.5, 3uM",0.58%
same,Peak current,"hKV 1.5; hKv1.5, 10uM",2.15%
same,CBPI,[5]; [6],1.808
same,Cytotoxicity (%),[5]; [6],12%
same,CBPI,[5]; [7],1.792
same,Cytotoxicity (%),[5]; [7],14%
same,CBPI,[5]; [8],1.76
same,Cytotoxicity (%),[5]; [8],17%
same,CBPI,[5]; [9],1.788
same,Cytotoxicity (%),[5]; [9],14%
same,CBPI,[5]; [10],1.84
same,Cytotoxicity (%),[5]; [10],9%
same,CBPI,[5]; [11],1.792
same,Cytotoxicity (%),[5]; [11],14%
same,CBPI,[5]; [12],1.86
same,Cytotoxicity (%),[5]; [12],7%
same,CBPI,[5]; [13],1.824
same,Cytotoxicity (%),[5]; [13],10%
same,CBPI,[5]; [14],1.772
same,Cytotoxicity (%),[5]; [14],16%
same,CBPI,[5]; [15],1.824
same,Cytotoxicity (%),[5]; [15],10%
same,CBPI,[5]; [16],1.848
same,Cytotoxicity (%),[5]; [16],8%
same,Percentage of MNBN Cells/Total BN Cells counted (%),[5]; [16],0.4%
same,CBPI,[5]; [17],1.824
same,Cytotoxicity (%),[5]; [17],10%
same,CBPI,[5]; [18],1.84
same,Cytotoxicity (%),[5]; [18],9%
same,CBPI,[5]; [19],1.836
same,Cytotoxicity (%),[5]; [19],9%
same,Percentage of MNBN Cells/Total BN Cells counted (%),[5]; [19],0.6%
same,CBPI,[5]; [20],1.388
same,Cytotoxicity (%),[5]; [20],58%
same,Percentage of MNBN Cells/Total BN Cells counted (%),[5]; [20],0.4%
same,CBPI,[5]; [21],1.916
same,Cytotoxicity (%),[5]; [21],0%
same,CBPI,[5]; [22],1.86
same,Cytotoxicity (%),[5]; [22],6%
same,CBPI,[5]; [23],1.912
same,Cytotoxicity (%),[5]; [23],0%
same,CBPI,[5]; [24],1.832
same,Cytotoxicity (%),[5]; [24],9%
same,CBPI,[5]; [25],1.864
same,Cytotoxicity (%),[5]; [25],6%
same,CBPI,[5]; [26],1.876
same,Cytotoxicity (%),[5]; [26],4%
same,CBPI,[5]; [27],1.88
same,Cytotoxicity (%),[5]; [27],4%
same,CBPI,[5]; [28],1.804
same,Cytotoxicity (%),[5]; [28],12%
same,CBPI,[5]; [29],1.84
same,Cytotoxicity (%),[5]; [29],8%
same,CBPI,[5]; [30],1.792
same,Cytotoxicity (%),[5]; [30],14%
same,CBPI,[5]; [31],1.8
same,Cytotoxicity (%),[5]; [31],13%
same,Percentage of MNBN Cells/Total BN Cells counted (%),[5]; [31],0.4%
same,CBPI,[5]; [32],1.832
same,Cytotoxicity (%),[5]; [32],9%
same,CBPI,[5]; [33],1.808
same,Cytotoxicity (%),[5]; [33],12%
same,CBPI,[5]; [34],1.704
same,Cytotoxicity (%),[5]; [34],23%
same,Percentage of MNBN Cells/Total BN Cells counted (%),[5]; [34],0.4%
same,CBPI,[5]; [35],1.496
same,Cytotoxicity (%),[5]; [35],46%
same,Percentage of MNBN Cells/Total BN Cells counted (%),[5]; [35],0.4%
same,micronucleus test result,"[5]; up to 2000 µg/ml, with or without S-9",No induction of micronuclei; also recorded: negative
